Results reported in publication PMC10690365, “Improved catalytic performance and molecular insight for lipoxygenase from Enterovibrio norvegicus via directed evolution” (Frontiers in Bioengineering and Biotechnology, 2023).
Numbering of substitutions follows the chain as printed.

How the values were obtained:
[1] = target: T1, EnLOX (wild-type, WT); lipoxygenase from Enterovibrio norvegicus (Enterovibrio norvegicus, UniProt A0A1I5T4S6); assay: absorbance at […] nm (hydroperoxide formation), Michaelis-Menten fit; type: biochemical; conditions: 20 mM Tris-HCl pH 8.0, 50 °C; substrate range printed as 10 to 300 mM (unit doubtful against the Km)
T1 construct: primer-encoded N-terminus MHRKKT
T1 sequence (A0A1I5T4S6 1-726): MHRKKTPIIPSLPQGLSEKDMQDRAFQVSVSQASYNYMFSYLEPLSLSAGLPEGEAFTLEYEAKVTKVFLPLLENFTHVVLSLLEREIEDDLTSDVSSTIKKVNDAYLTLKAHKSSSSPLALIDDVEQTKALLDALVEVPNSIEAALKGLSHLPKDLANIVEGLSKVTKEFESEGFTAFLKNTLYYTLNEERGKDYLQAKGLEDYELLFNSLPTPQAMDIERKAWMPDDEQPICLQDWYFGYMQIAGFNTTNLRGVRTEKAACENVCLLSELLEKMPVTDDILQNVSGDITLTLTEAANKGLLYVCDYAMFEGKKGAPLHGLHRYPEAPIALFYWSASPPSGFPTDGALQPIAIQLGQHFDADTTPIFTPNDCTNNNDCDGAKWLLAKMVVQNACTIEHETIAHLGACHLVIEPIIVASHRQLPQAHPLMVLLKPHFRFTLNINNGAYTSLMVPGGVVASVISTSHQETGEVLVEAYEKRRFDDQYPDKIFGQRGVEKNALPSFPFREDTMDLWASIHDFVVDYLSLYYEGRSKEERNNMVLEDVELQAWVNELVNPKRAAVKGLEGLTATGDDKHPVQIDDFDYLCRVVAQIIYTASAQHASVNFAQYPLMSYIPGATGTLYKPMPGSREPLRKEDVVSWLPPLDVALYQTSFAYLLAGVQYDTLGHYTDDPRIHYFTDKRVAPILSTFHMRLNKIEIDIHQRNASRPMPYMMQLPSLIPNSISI

[2] = target: T2, EnLOX (wild-type, WT); lipoxygenase from Enterovibrio norvegicus (Enterovibrio norvegicus, UniProt A0A1I5T4S6, D95E/T99A/A121H/S142N/N444W/S613G, form not given); assay: as above; type: biochemical; conditions: 20 mM Tris-HCl pH 8.0, 50 °C; substrate range printed as 10 to 300 mM (unit doubtful against the Km); mutant EAHNWG (F-12E); printed nucleotide changes do not fully match the amino acid positions
T2 construct: primer-encoded N-terminus MHRKKT
T2 sequence (A0A1I5T4S6 1-726 D95E/T99A/A121H/S142N/N444W/S613G): T1 sequence (A0A1I5T4S6 1-726) with D95E, T99A, A121H, S142N, N444W, S613G

- Km [1]: 3.49 ± 0.21 µM
- Km [2]: 2360 ± 140 nM
SMILES: CCCCC/C=C\C/C=C\CCCCCCCC(=O)O [linoleic acid]
